# Source: US9012489B2, “Phenyl-3-aza-bicyclo[3.1.0]hex-3-yl-methanones and the use thereof as medicament” (Boehringer Ingelheim International GmbH, priority 2011, dated 2015)
# Biological target: T1, GlyT1 transporter (Homo sapiens, UniProt P48067)
# T1 construct: endogenously expressing the GlyT1 transporter; host or cells: SK-N-MC human neuroblastoma cells
# T1 sequence (P48067 1-706): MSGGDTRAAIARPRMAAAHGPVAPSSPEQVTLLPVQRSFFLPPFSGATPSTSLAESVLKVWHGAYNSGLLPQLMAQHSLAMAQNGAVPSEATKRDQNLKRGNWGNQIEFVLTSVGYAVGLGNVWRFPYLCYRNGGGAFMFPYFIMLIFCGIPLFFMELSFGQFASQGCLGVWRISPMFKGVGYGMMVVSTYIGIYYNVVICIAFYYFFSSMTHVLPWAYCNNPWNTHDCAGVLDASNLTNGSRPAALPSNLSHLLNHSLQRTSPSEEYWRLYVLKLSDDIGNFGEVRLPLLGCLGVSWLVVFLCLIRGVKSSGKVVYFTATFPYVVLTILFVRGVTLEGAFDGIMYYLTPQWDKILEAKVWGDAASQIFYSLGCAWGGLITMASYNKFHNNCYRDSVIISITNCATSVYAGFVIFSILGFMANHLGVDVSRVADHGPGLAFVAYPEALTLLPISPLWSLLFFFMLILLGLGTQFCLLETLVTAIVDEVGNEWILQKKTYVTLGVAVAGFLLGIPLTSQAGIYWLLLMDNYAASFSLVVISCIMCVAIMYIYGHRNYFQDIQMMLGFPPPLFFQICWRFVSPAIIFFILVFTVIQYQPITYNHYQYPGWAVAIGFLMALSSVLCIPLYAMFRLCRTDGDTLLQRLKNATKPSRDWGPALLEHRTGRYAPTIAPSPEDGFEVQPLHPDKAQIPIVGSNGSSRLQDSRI
# Assay: GlyT1 assay: 3H-glycine uptake into SK-N-MC cells (Cytostar-T format)
# Type: cell-based
# Conditions: glycine uptake in human SK-N-MC cells endogenously expressing GlyT1; 500 nM glycine, 1% DMSO, signal recorded over 60 min
# Outline: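 Endogenous GlyT1 in human SK-N-MC cells, confluent after 16-18 h, in HBSS with 5 mM alanine. Compounds preincubated about 5-10 min, then 500 nM glycine (half ³H) added, 1% DMSO. Scintillation-proximity uptake recorded kinetically over 60 min; IC50 from linear-range slopes over 8 concentrations, nonspecific uptake defined with 10 μM RG-1678.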
row,SMILES,IC50 [nM]
1,"C[C@H](Oc1ccc(S(C)(=O)=O)cc1C(=O)N1CC2CC2(c2cn3ccccc3n2)C1)C(F)(F)F (mixture of isomers) [Example 24, (1-Imidazo[1,2-a]pyridin-2-yl-3-aza-bicyclo[3.1.0]hex-3-yl)-[5-methanesulfonyl-2-(2,2,2-trifluoro-1-methyl-1-ethoxy)-phenyl]-methanone]",911
2,"COC1(c2nc(C34CC3CN(C(=O)c3cc(S(C)(=O)=O)ccc3O[C@H](C)C(F)(F)F)C4)no2)CC1 (mixture of isomers) [Example 119, [5-Methanesulfonyl-2-(2,2,2-trifluoro-1-methyl-ethoxy)-phenyl]-{1-[5-(1-methoxy-cyclopropyl)-[1,2,4]oxadiazol-3-yl]-3-aza-bicyclo[3.1.0]hex-3-yl}-methanone]",11
3,"Cc1nnc(C23CC2CN(C(=O)c2cc(S(C)(=O)=O)ccc2O[C@@H](C)C(F)(F)F)C3)o1 (mixture of isomers) [Example 38, [5-Methanesulfonyl-2-(2,2,2-trifluoro-1-methyl-ethoxy)-phenyl]-[1-(5-methyl-[1,3,4]oxadiazol-2-yl)-3-aza-bicyclo[3.1.0]hex-3-yl]-methanone]",89
4,"COC1(c2nc(C34CC3CN(C(=O)c3cc(S(C)(=O)=O)ccc3O[C@H](C)C(F)(F)F)C4)no2)CC1 (single isomer, unassigned) [Example 120, [5-Methanesulfonyl-2-(2,2,2-trifluoro-1-methyl-ethoxy)-phenyl]-{1-[5-(1-methoxy-cyclopropyl)-[1,2,4]oxadiazol-3-yl]-3-aza-bicyclo[3.1.0]hex-3-yl}-methanone]",6
5,"C[C@H](Oc1ccc(S(C)(=O)=O)cc1C(=O)N1CC2CC2(c2csc(C(F)(F)F)n2)C1)C(F)(F)F (mixture of isomers) [Example 26, [5-Methanesulfonyl-2-(2,2,2-trifluoro-1-methyl-ethoxy)-phenyl]-[1-(2-trifluoromethyl-thiazol-4-yl)-3-aza-bicyclo[3.1.0]hex-3-yl]-methanone]",8
6,"CC1(C)Cc2cc(S(C)(=O)=O)cc(C(=O)N3CC4CC4(c4noc(C(F)(F)F)n4)C3)c2O1 (racemic) [Example 99, (5-Methanesulfonyl-2,2-dimethyl-2,3-dihydro-benzofuran-7-yl)-[1-(5-trifluoromethyl-[1,2,4]oxadiazol-3-yl)-3-aza-bicyclo[3.1.0]-3-yl]-methanone]",291
7,"C[C@@H](Oc1ccc(S(C)(=O)=O)cc1C(=O)N1CC2CC2(c2nccc(C3CC3)n2)C1)C(F)(F)F (mixture of isomers) [Example 79, [1-(4-Cyclopropyl-pyrimidin-2-yl)-3-aza-bicyclo[3.1.0]hex-3-yl]-[5-methanesulfonyl-2-(2,2,2-trifluoro-1-methyl-ethoxy)-phenyl]-methanone]",6
8,"COC1(c2nc(C34CC3CN(C(=O)c3cc(S(C)(=O)=O)ccc3O[C@@H](C)C(F)(F)F)C4)no2)CC1 (single isomer, unassigned) [Example 117, [5-Methanesulfonyl-2-(2,2,2-trifluoro-1-methyl-ethoxy)-phenyl]-{1-[5-(1-methoxy-cyclopropyl)-[1,2,4]oxadiazol-3-yl]-3-aza-bicyclo[3.1.0]hex-3-yl}-methanone]",6
9,"C[C@H](Oc1ccc(S(C)(=O)=O)cc1C(=O)N1CC2CC2(c2noc(C3CC3)n2)C1)C(F)(F)F (single isomer, unassigned) [Example 11, [1-(5-Cyclopropyl-[1,2,4]oxadiazol-3-yl)-3-aza-bicyclo[3.1.0]hex-3-yl]-[5-methanesulfonyl-2-(2,2,2-trifluoro-1-methyl-ethoxy)-phenyl]-methanone]",175
10,"C[C@H](Oc1ccc(S(C)(=O)=O)cc1C(=O)N1CC2CC2(c2csc(C(F)(F)F)n2)C1)C(F)(F)F (single isomer, unassigned) [Example 27, [5-Methanesulfonyl-2-(2,2,2-trifluoro-1-methyl-ethoxy)-phenyl]-[1-(2-trifluoromethyl-thiazol-4-yl)-3-aza-bicyclo[3.1.0]hex-3-yl]-methanone]",5
11,"C[C@H](Oc1ccc(S(C)(=O)=O)cc1C(=O)N1CC2CC2(c2ncccn2)C1)C(F)(F)F (mixture of isomers) [Example 14, [5-Methanesulfonyl-2-(2,2,2-trifluoro-1-methyl-ethoxy)-phenyl]-(1-pyrimidin-2-yl-3-aza-bicyclo[3.1.0]hex-3-yl)-methanone]",67

# Continued, values first:
row,IC50 [nM],SMILES
1,10,"C[C@H](Oc1ccc(S(C)(=O)=O)cc1C(=O)N1CC2CC2(c2noc(C3CC3(F)F)n2)C1)C(F)(F)F (mixture of isomers) [Example 63, {1-[5-(2,2-Difluoro-cyclopropyl)-[1,2,4]oxadiazol-3-yl]-3-aza-bicyclo[3.1.0]hex-3-yl}-[5-methanesulfonyl-2-(2,2,2-trifluoro-1-methyl-ethoxy)-phenyl]-methanone]"
2,461,"C[C@@H](Oc1ccc(S(C)(=O)=O)cc1C(=O)N1CC2CC2(c2cc(C(F)(F)F)on2)C1)C(F)(F)F (single isomer, unassigned) [Example 51, [5-Methanesulfonyl-2-(2,2,2-trifluoro-1-methyl-ethoxy)-phenyl]-[1-(5-trifluoromethyl-isoxazol-3-yl)-3-aza-bicyclo[3.1.0]hex-3-yl]-methanone]"
3,17,"C[C@@H](Oc1ccc(S(C)(=O)=O)cc1C(=O)N1CC2CC2(c2noc(C(F)(F)F)n2)C1)C(F)(F)F (mixture of isomers) [Example 58, [5-Methanesulfonyl-2-(2,2,2-trifluoro-1-methyl-ethoxy)-phenyl]-[1-(5-trifluoromethyl-[1,2,4]oxadiazol-3-yl)-3-aza-bicyclo[3.1.0]hex-3-yl]-methanone]"
4,29,"C[C@H](Oc1ccc(S(C)(=O)=O)cc1C(=O)N1CC2CC2(c2cc(C(F)(F)F)on2)C1)C(F)(F)F (mixture of isomers) [Example 46, [5-Methanesulfonyl-2-(2,2,2-trifluoro-1-methyl-ethoxy)-phenyl]-[1-(5-trifluoromethyl-isoxazol-3-yl)-3-aza-bicyclo[3.1.0]hex-3-yl]-methanone]"
5,9,"Cc1c(C23CC2CN(C(=O)c2cc(S(C)(=O)=O)ccc2O[C@H](C)C(F)(F)F)C3)noc1C(F)(F)F (single isomer, unassigned) [Example 161]"
6,2360,"C[C@@H](Oc1ccc(S(C)(=O)=O)cc1C(=O)N1CC2CC2(c2nc(C(F)(F)F)no2)C1)C(F)(F)F (single isomer, unassigned) [Example 87, [5-Methanesulfonyl-2-(2,2,2-trifluoro-1-methyl-ethoxy)-phenyl]-[1-(3-trifluoromethyl-[1,2,4]oxadiazol-5-yl)-3-aza-bicyclo[3.1.0]hex-3-yl]-methanone]"
7,10,"CCS(=O)(=O)c1ccc(O[C@H](C)C(F)(F)F)c(C(=O)N2CC3CC3(c3nccc(C(F)(F)F)n3)C2)c1 (mixture of isomers) [Example 76, [5-Ethanesulfonyl-2-(2,2,2-trifluoro-1-methyl-ethoxy)-phenyl]-[1-(4-trifluoromethyl-pyrimidin-2-yl)-3-aza-bicyclo[3.1.0]hex-3-yl]-methanone]"
8,31,"C[C@H](Oc1ccc(S(C)(=O)=O)cc1C(=O)N1CC2CC2(c2nnc(C(F)(F)F)o2)C1)C(F)(F)F (mixture of isomers) [Example 125, [5-Methanesulfonyl-2-(2,2,2-trifluoro-1-methyl-ethoxy)-phenyl]-[1-(5-trifluoromethyl-[1,3,4]oxadiazol-2-yl)-3-aza-bicyclo[3.1.0]hex-3-yl]-methanone]"
9,248,"CCS(=O)(=O)c1ccc(O[C@H](C)C(F)(F)F)c(C(=O)N2CC3CC3(c3cc(C(F)(F)F)on3)C2)c1 (single isomer, unassigned) [Example 106, [5-Ethanesulfonyl-2-(2,2,2-trifluoro-1-methyl-ethoxy)-phenyl]-[1-(5-trifluoromethyl-isoxazol-3-yl)-3-aza-bicyclo[3.1.0]hex-3-yl]-methanone]"
10,19,"CCS(=O)(=O)c1ccc(O[C@@H](C)C(F)(F)F)c(C(=O)N2CC3CC3(c3noc(C(F)(F)F)n3)C2)c1 (mixture of isomers) [Example 40, [5-Ethanesulfonyl-2-(2,2,2-trifluoro-1-methyl-ethoxy)-phenyl]-[1-(5-trifluoromethyl-[1,2,4]oxadiazol-3-yl)-3-aza-bicyclo[3.1.0]hex-3-yl]-methanone]"
11,15,"Cc1nc(C23CC2CN(C(=O)c2cc(S(C)(=O)=O)ccc2O[C@H](C)C(F)(F)F)C3)no1 (mixture of isomers) [Example 101, [5-Methanesulfonyl-2-(2,2,2-trifluoro-1-methyl-ethoxy)-phenyl]-[1-(5-methyl-[1,2,4]oxadiazol-3-yl)-3-aza-bicyclo[3.1.0]hex-3-yl]-methanone]"
12,106,"C[C@@H](Oc1ccc(S(C)(=O)=O)cc1C(=O)N1CC2CC2(c2nccc(C(F)(F)F)n2)C1)C(F)(F)F (single isomer, unassigned) [Example 18, [5-Methanesulfonyl-2-(2,2,2-trifluoro-1-methyl-ethoxy)-phenyl]-[1-(4-trifluoromethyl-pyrimidin-2-yl)-3-aza-bicyclo[3.1.0]hex-3-yl]-methanone]"
